Entries after “also recorded” stand apart in the source; their conditions may differ.
Columns and labels:
[1] = tested on: intact human blood cells with inhibited complex I in human plasma; assay: Screening assay 4: cells with inhibited respiratory complex I in human plasma; type: cell-based; set-up: key: (+): Brackets [( )] indicate an intermediate effect, i.e. (+++) is between ++ and +++; graded either +, ++ or +++ in increasing order of potency; (++): Brackets [( )] indicate an intermediate effect, i.e. (+++) is between ++ and +++; graded either +, ++ or +++ in increasing order of potency; (+++) is between ++ and +++; graded either +, ++ or +++ in increasing order of potency; settings: screening assay 4, complex I inhibited
Experimental: Measurement of mitochondrial respirationise performed in a high-resolution oxygraph (Oxygraph-2k, Oroboros Instruments, Innsbruck, Austria) at a constant temperature of 37° C. […] Intact human blood cells are incubated in plasma from the same donor. […] The experiment is terminated by addition of Antimycin at final concentration 1 μg/mL and any residual non-mitochondrial oxygen consumption is measured.

intact cells [2] = assay: Screening assay 2: enhancement and inhibition of mitochondrial energy producing function in intact cells (FCCP); type: cell-based, human; set-up: key to Convergent (FCCP): increase in mitochondrial oxygen consumption: (+): Brackets [( )] indicate an intermediate effect, i.e. (+++) is between ++ and +++; graded either +, ++ or +++ in increasing order of potency; (++): Brackets [( )] indicate an intermediate effect, i.e. (+++) is between ++ and +++; graded either +, ++ or +++ in increasing order of potency; (+++) is between ++ and +++; graded either +, ++ or +++ in increasing order of potency; settings: for Toxicity: lowest concentration during compound titration at which a decrease in oxygen consumption is seen: screening assay 2; for Convergent (FCCP): increase in mitochondrial oxygen consumption: screening assay 2, uncoupled conditions
Experimental: (§1) Measurement of mitochondrial respirationise performed in a high-resolution oxygraph (Oxygraph-2k, Oroboros Instruments, Innsbruck, Austria) at a constant temperature of 37° C. Isolated human platelets, white blood cells, fibroblasts, human heart muscle fibers or other cell types containing live mitochondria are suspended in a 2 mL glass chamber at a concentration sufficient to yield oxygen consumption in the medium of 10 pmol O2 s^−1 mL^−1.
In the second protocol the same buffer is used as described above. After basal respiration is established, the mitochondrial uncoupler FCCP is added at a concentration of 2 nM to increase metabolic demand.

[3] = tested on: cells with inhibited respiratory complex I; assay: Screening assay 1: enhancement of mitochondrial energy producing function in cells with inhibited respiratory complex I; type: cell-based, human; set-up: key: (+): Brackets [( )] indicate an intermediate effect, i.e. (+++) is between ++ and +++; graded either +, ++ or +++ in increasing order of potency; (++): Brackets [( )] indicate an intermediate effect, i.e. (+++) is between ++ and +++; graded either +, ++ or +++ in increasing order of potency; (+++) is between ++ and +++; graded either +, ++ or +++ in increasing order of potency; settings: screening assay 1, complex I inhibited with rotenone 2 μM
Experimental: as §1
Cells are placed in a buffer containing 110 mM sucrose, HEPES 20 mM, taurine 20 mM, K-lactobionate 60 mM, MgCl2 3 mM, KH2PO4 10 mM, EGTA 0.5 mM, BSA 1 g/l, pH 7.1. […] Compounds dissolved in DMSO are titrated in a range of 10 μM to 10 mM final concentration. Subsequently, cell membranes are permeabilised with digitonin (1 mg/1*10^6 plt) to allow entry of extracellularly released energy substrate or cell impermeable energy substrates. After stabilized respiration, Succinate 10 mM is added as a reference to enable respiration downstream of complex I. After the respiration stabilized the experiment is terminated by addition of Antimycin at final concentration 1 μg/mL and any residual non-mitochondrial oxygen consumption is measured. An increase in respiration rate in the described protocol is tightly coupled to ATP synthesis by oxidative phosphorylation unless cells are uncoupled (i.e. proton leak without production of ATP). Uncoupling is tested for by addition of the ATP synthase inhibitor oligomycin (1-2 μg mL^−1) in a protocol 3 where the extent of uncoupling corresponds to the respiratory rate following oligomycin addition.

intact cells [4] = assay: Screening assay 3: uncoupling in intact cells; for Uncoupling: level of oxygen consumption after addition of oligomycin: tested at 1000 µM; type: cell-based, human; set-up: key: (+): Brackets [( )] indicate an intermediate effect, i.e. (+++) is between ++ and +++; graded either +, ++ or +++ in increasing order of potency; (++): Brackets [( )] indicate an intermediate effect, i.e. (+++) is between ++ and +++; graded either +, ++ or +++ in increasing order of potency; (+++) is between ++ and +++; graded either +, ++ or +++ in increasing order of potency; settings: for Uncoupling: level of oxygen consumption after addition of oligomycin: screening assay 3; for Convergent (Routine): increase in mitochondrial oxygen consumption: screening assay 3, 1 mM compound
Experimental: Measurement of mitochondrial respirationise performed in a high-resolution oxygraph (Oxygraph-2k, Oroboros Instruments, Innsbruck, Austria) at a constant temperature of 37° C. […] In the third protocol, the same buffer as described above is used. […] Subsequently, the ATP-synthase-inhibitor Oligomycin is added. A reduction in respiration is a measure of how much of the oxygen consumption that is coupled to ATP synthesis. No, or only a slight, reduction indicate that the compound is inducing a proton leak over the inner mitochondrial membrane. The uncoupler FCCP is then titrated to induce maximum uncoupled respiration. […] The experiment is terminated by the addition of 1 μg/mL of the complex III inhibitor Antimycin to measure non-mitochondrial oxygen consumption.

intact human platelets = assay: Intervention on rotenone- or metformin-induced lactate production with cell-permeable succinate prodrugs; type: cell-based; settings: for effect on rotenone-induced lactate production: 2 μM rotenone, repeated additions of 250 μM; for effect on metformin-induced lactate production: 10 mM metformin, additions of 250 μM each 30 minutes
Experimental: Lactate levels are determined every 30 min using the Lactate Pro™ 2 blood lactate test meter (Arkray, Alere A B, Lidingö, Sweden) or similar types of measurements. Incubation is performed at 37° C. pH is measured at start, after 4 and after 8 h (or more frequently) of incubation using a Standard pH Meter, e.g. PHM210 (Radiometer, Copenhagen, Denmark). Drug candidates are added to the assay from start or following 30-60 min at concentrations within the range 10 μM-5 mM. […] In order to evaluate the specificity of the drug candidate, it is also tested in combination with a down-stream inhibitor of respiration such as the complex III inhibitor Antimycin at 1 μg/mL, which should abolish the effect of the drug candidate and restore the production of lactate.
Lactate levels were measured in intervals of 30 min with the onset of the experiment.

Compound | CII (plasma): increase in mitochondrial oxygen consumption [1] | Toxicity: lowest concentration during compound titration at which a decrease in oxygen consumption is seen (intact cells [2]) | Convergent (FCCP): increase in mitochondrial oxygen consumption (intact cells [2]) | CII: increase in mitochondrial oxygen consumption [3] | Uncoupling: level of oxygen consumption after addition of oligomycin (intact cells [4]) | Convergent (Routine): increase in mitochondrial oxygen consumption (intact cells [4]) | effect on rotenone-induced lactate production (intact human platelets) | effect on metformin-induced lactate production (intact human platelets)
CCC(=O)N[C@@H](CSC(=O)CCC(=O)O)C(=O)O [Compound 01-041, (R)-4-(2-carboxy-2-propionamidoethylthio)-4-oxobutanoic acid] | + | 5 mM | +++ | ++ | (+) | + |  | 
CC(=O)NCCSC(=O)CCC(=O)O [Compound 01-108, 4-(2-acetamidoethylthio)-4-oxobutanoic acid] | (+) | 10 mM | ++ | (++) | + | ++ |  | 
CCC(=O)NCCSC(=O)CCC(=O)O [Compound 01-114, 4-oxo-4-(2-propionamidoethylthio)butanoic acid] | + | 10 mM | ++ | ++ | (+) | +++ |  | 
CC(=O)OC(CCCOC(=O)CCC(=O)O)OC(=O)CCC(=O)O (centres unmarked) [Compound 01-134] | (+) | 10 mM | (+) | (+) | (+) | ++ |  | 
CC(=O)OC(CCCN1C(=O)c2ccccc2C1=O)OC(=O)CCC(=O)O (centres unmarked) [Compound 01-150, 4-(1-acetoxy-4-(1,3-dioxoisoindolin-2-yl)butoxy)-4-oxobutanoic acid] | (+) | 2 mM | + | ++ | (+) | +++ |  | 
CCC(=O)N[C@@H](CSC(=O)CCC(=O)SC[C@H](NC(=O)CC)C(=O)N(CC)CC)C(=O)N(CC)CC [Compound 01-185, S,S-bis((R)-3-(diethylamino)-3-oxo-2-propionamidopropyl) butanebis(thioate)] | + | 2 mM | + | + | (+) | (+) |  | 
CC(=O)NCC(C)(C)SC(=O)CCC(=O)O [Compound 01-188, 4-(1-acetamido-2-methylpropan-2-ylthio)-4-oxobutanoic acid] | + | 5 mM | +++ | + | (+) | +++ |  | 
CCN(CC)C(=O)COCCSC(=O)CCC(=O)O [Compound 01-193, 4-(2-(2-(diethylamino)-2-oxoethoxy)ethylthio)-4-oxobutanoic acid] | (+) | 5 mM | + | + | + | (++) |  | 
CCC(=O)N[C@@H](CSC(=O)CCC(=O)SC[C@H](NC(=O)CC)C(=O)OC)C(=O)OC [Compound 01-205, (R)-methyl 3-(4-((R)-3-methoxy-3-oxo-2-propionamidopropylthio)-4-oxobutanoylthio)-2-propionamidopropanoate] | + | 5 mM | ++ | ++ | (+) | +++ |  | 
CC(=O)OC(C)OC(=O)CCC(=O)OC(C)OC(C)=O (centres unmarked) [NV189, Succinic acid bis-(1-acetoxy-ethyl) ester] |  |  |  |  |  |  | attenuated; also recorded: brought back to normal | significantly decreased
CC(=O)OCOC(=O)CCC(=O)OC(C)OC(C)=O (centres unmarked) [NV241, Succinic acid 1-acetoxy-ethyl ester acetoxymethyl ester] |  |  |  |  |  |  | attenuated | significantly decreased
succinate [reference compound] |  |  |  |  |  |  |  | did not change this; also recorded: did not reduce

Reference: patent US10307389B2, “Succinate prodrugs for use in the treatment of lactic acidosis or drug-induced side-effects due to Complex I-related impairment of mitochondrial oxidative phosphorylation” (NEUROVIVE PHARMACEUTICAL AB, priority 2014, dated 2019)
